Measurements taken from PMC8198038, “In Vitro Evaluation of Antiproliferative Properties of Novel Organotin(IV) Carboxylate Compounds with Propanoic Acid Derivatives on a Panel of Human Cancer Cell Lines” (Molecules, 2021).

Key:
[1] = system: PC-3 (human prostate cancer) cells; assay: MTT assay, PC-3 cells; type: cell-based; details: read-out: IC50 (mean ± SD), PC-3, MTT
Description: (§1) The cell proliferations of ligand precursors and organotin(IV) compounds were evaluated with the aid of MTT (3-(4,5-dimethylthiazol-2-yl)-2,5-12 diphenyltetrazolium bromide) and CV (crystal violet) assays toward prostate (PC-3), colon (HT-29), breast (MCF-7) and hepatic (HepG2) cancer cell lines, and normal mouse embryonic fibroblast cells (NIH 3T3). The cells were cultivated in T75 flasks containing 10 mL of complete medium and kept at 37 °C and 5% CO2 […]. The nutrient medium was RPMI-1640 (PAA Laboratories) supplemented with 10% foetal bovine serum, L-glutamine, and penicillin/streptomycin (Sigma). Afterward, 5.000 cells of PC-3 and MCF-7 and 1.500 cells of HT-29 and HepG2 were transferred into 96 well-plates and used for MTT and CV assays. For microscopy investigations as well as FACS measurements (except for ROS/RNS measurements), MCF-7 cells were seeded overnight in 6-well plates (150,000 cells/well) in […] of complete medium. […] In all assays, control cells were untreated MCF-7 cells incubated for the same time period as treated cells and treated with appropriate reagents in various assays. BD FACS Aria III was used for flow cytometry experiments and results were analysed using BD FACSDiva software (BD Biosciences, Heidelberg, Germany) and Cyflogic (V 1.2.1, CyFlo Ltd., Turku, Finland). A fluorescence microscope Invitrogen EVOS FL 2 Auto 2 Cell Imaging System was used for visualization of the cells as well as for detection of fluorescence in the cells.
(§2) Ligands HL1‒HL3, organotin(IV) compounds, and cisplatin were investigated in 9 different concentrations (100, 50, 10, 5, 1, 0.5, 0.1, 0.05, 0.01 μM). Using the complete medium, each stock solution of the test compounds (20 mM in DMSO) was diluted to obtain the working solution. The final concentration of DMSO never overstepped 0.5%, which is non-toxic to the cells. Three technical replicates were performed for each concentration. The treated cells were incubated for 48 h at 37 °C under 5% CO2 and the viability of the cells was determined using MTT and CV assays according to the literature procedure. The IC50 values, defined as 50% inhibitory concentration, were calculated with a four-parameter logistic function and presented in a mean. All experiments were performed in triplicate.

[2] = system: HT-29 (human colorectal adenocarcinoma) cells; assay: MTT assay, HT-29 cells; type: cell-based; details: read-out: IC50 (mean ± SD), HT-29, MTT
Description: as §1, §2

[3] = system: MCF-7 (breast cancer) cells; assay: MTT assay, MCF-7 cells; type: cell-based, human; details: for IC50: read-out: IC50 (mean ± SD), MCF-7, MTT
Description: as §1, §2

[4] = system: HepG2 (hepatocellular cancer) cells; assay: MTT assay, HepG2 cells; type: cell-based, human; details: read-out: IC50 (mean ± SD), HepG2, MTT
Description: as §1, §2

[5] = system: NIH3T3 (normal mouse embryonic fibroblast) cells; assay: MTT assay, NIH3T3 cells; type: cell-based; details: read-out: IC50 (mean ± SD), NIH3T3, MTT
Description: as §1, §2

[6] = system: PC-3 (human prostate cancer) cells; assay: CV (crystal violet) assay, PC-3 cells; type: cell-based; details: read-out: IC50 (mean ± SD), PC-3, CV
Description: as §1, §2

[7] = system: HT-29 (human colorectal adenocarcinoma) cells; assay: CV (crystal violet) assay, HT-29 cells; type: cell-based; details: read-out: IC50 (mean ± SD), HT-29, CV
Description: as §1, §2

[8] = system: MCF-7 (breast cancer) cells; assay: CV (crystal violet) assay, MCF-7 cells; type: cell-based, human; details: read-out: IC50 (mean ± SD), MCF-7, CV
Description: as §1, §2

[9] = system: HepG2 (hepatocellular cancer) cells; assay: CV (crystal violet) assay, HepG2 cells; type: cell-based, human; details: read-out: IC50 (mean ± SD), HepG2, CV
Description: as §1, §2

[10] = system: NIH3T3 (normal mouse embryonic fibroblast) cells; assay: CV (crystal violet) assay, NIH3T3 cells; type: cell-based; details: read-out: IC50 (mean ± SD), NIH3T3, CV
Description: as §1, §2

[11] = system: PC-3, HT-29, MCF-7 and HepG2 tumour cell lines; assay: MTT and CV assays, panel of four tumour cell lines; type: cell-based, human; details: applied concentrations up to 100 µM, 48 h
Description: The in vitro anticancer activity of ligand precursors, HL1–HL3 and its organotin(IV) compounds was tested in a panel of four tumour cell lines: PC3 (prostate cancer cells), HT-29 (colon cancer cells), MCF-7 (breast cancer cells), and HepG2 (hepatic cancer cells), as well as on normal NIH3T3 cells (mouse embryonic fibroblast) using MTT and CV assays after 48 h of incubation.
The cell proliferations of ligand precursors and organotin(IV) compounds were evaluated with the aid of MTT (3-(4,5-dimethylthiazol-2-yl)-2,5-12 diphenyltetrazolium bromide) and CV (crystal violet) assays toward prostate (PC-3), colon (HT-29), breast (MCF-7) and hepatic (HepG2) cancer cell lines, and normal mouse embryonic fibroblast cells (NIH 3T3). The cells were cultivated in T75 flasks containing 10 mL of complete medium and kept at 37 °C and 5% CO2 […]. The nutrient medium was RPMI-1640 (PAA Laboratories) supplemented with 10% foetal bovine serum, L-glutamine, and penicillin/streptomycin (Sigma). Afterward, 5.000 cells of PC-3 and MCF-7 and 1.500 cells of HT-29 and HepG2 were transferred into 96 well-plates and used for MTT and CV assays. For microscopy investigations as well as FACS measurements (except for ROS/RNS measurements), MCF-7 cells were seeded overnight in 6-well plates (150,000 cells/well) in […] of complete medium. […] BD FACS Aria III was used for flow cytometry experiments and results were analysed using BD FACSDiva software (BD Biosciences, Heidelberg, Germany) and Cyflogic (V 1.2.1, CyFlo Ltd., Turku, Finland). A fluorescence microscope Invitrogen EVOS FL 2 Auto 2 Cell Imaging System was used for visualization of the cells as well as for detection of fluorescence in the cells.
Ligands HL1‒HL3, organotin(IV) compounds, and cisplatin were investigated in 9 different concentrations (100, 50, 10, 5, 1, 0.5, 0.1, 0.05, 0.01 μM). […] The treated cells were incubated for 48 h at 37 °C under 5% CO2 and the viability of the cells was determined using MTT and CV assays according to the literature procedure. […]

[12] = Homo sapiens, PC-3, MTT assay, 48 h incubation
[13] = Homo sapiens, HT-29, MTT assay, 48 h incubation
[14] = Homo sapiens, MCF7, MTT assay, 48 h incubation
[15] = Homo sapiens, HepG2, MTT assay, 48 h incubation
[16] = Mus musculus, NIH3T3, MTT assay, 48 h incubation, normal cells
[17] = Homo sapiens, PC-3, CV assay, 48 h incubation
[18] = Homo sapiens, HT-29, CV assay, 48 h incubation
[19] = Homo sapiens, MCF7, CV assay, 48 h incubation
[20] = Homo sapiens, HepG2, CV assay, 48 h incubation
[21] = Mus musculus, NIH3T3, CV assay, 48 h incubation, normal cells
[22] = MTT assay, 48 h incubation, normal cells
[23] = CV assay, 48 h incubation, normal cells

In the case of `O=C(O)CCc1nc(-c2ccccc2)c(-c2ccccc2)o1` [HL1, 3-(4,5-diphenyloxazol-2-yl)propanoic acid, reference compound], the IC50 ([1]; Homo sapiens, PC-3, 48 h) is reported as > 100 µM, the IC50 ([2]; Homo sapiens, HT-29, 48 h) is reported as > 100 µM and the IC50 ([3]; Homo sapiens, MCF7, 48 h) is reported as > 100 µM. The IC50 ([4]; Homo sapiens, HepG2, 48 h) was > 100 µM, the IC50 ([5]; Mus musculus, NIH3T3, 48 h) was > 100 µM and the IC50 ([6]; Homo sapiens, PC-3, 48 h) was > 100 µM. For the same compound, the IC50 ([7]; Homo sapiens, HT-29, 48 h) was > 100 µM, the IC50 ([8]; Homo sapiens, MCF7, 48 h) was > 100 µM and the IC50 ([9]; Homo sapiens, HepG2, 48 h) was > 100 µM. For the same compound, the IC50 ([10]; Mus musculus, NIH3T3, 48 h) was > 100 µM and the “influence on cell proliferation” value [11] was “did not affect cell proliferation in any cancer cell line tested”.

`COc1ccc(-c2nc(CCC(=O)O)oc2-c2ccc(OC)cc2)cc1` [HL2, 3-(4,5-bis(4-Methoxylphenyl)oxazol-2-yl)propanoic acid] was tested, and the IC50 [1, 12] was > 100 µM, the IC50 [2, 13] was > 100 µM and the IC50 [3, 14] was > 100 µM. For the same compound, the IC50 [4, 15] was > 100 µM, the IC50 [5, 16] was > 100 µM and the IC50 [6, 17] was > 100 µM. For the same compound, the IC50 [7, 18] was > 100 µM, the IC50 [8, 19] was > 100 µM and the IC50 [9, 20] was > 100 µM. The IC50 [10, 21] was > 100 µM and the “influence on cell proliferation” value [11] was “did not affect cell proliferation in any cancer cell line tested”.

For `O=C(O)CCN1C(=O)NC(c2ccccc2)(c2ccccc2)C1=O` [HL3, 3-(2,5-Dioxo-4,4-diphenylimidazolidin-1-yl)propanoic acid], the IC50 [1, 12] was > 100 µM, the IC50 [2, 13] was > 100 µM and the IC50 [3, 14] was > 100 µM. The IC50 [4, 15] was > 100 µM, the IC50 [5, 16] was > 100 µM and the IC50 [6, 17] was > 100 µM. The IC50 [7, 18] was > 100 µM, the IC50 [8, 19] was > 100 µM and the IC50 [9, 20] was > 100 µM. For the same compound, the IC50 [10, 21] was > 100 µM and the “influence on cell proliferation” value [11] was “did not affect cell proliferation in any cancer cell line tested”.

`O=C(CCN1C(=O)NC(c2ccccc2)(c2ccccc2)C1=O)[O][Sn]([c]1ccccc1)([c]1ccccc1)[c]1ccccc1` [Ph3SnL3, (3-(2,5-Dioxo-4,4-diphenylimidazolidin-1-yl)propanoato)triphenyltin(IV)] showed an IC50 ([1]; MTT assay, 48 h incubation) of 0.211 ± 0.042 µM, an IC50 ([2]; MTT assay, 48 h incubation) of 0.218 ± 0.015 µM and an IC50 ([3]; MTT assay, 48 h incubation) of 0.131 ± 0.017 µM. For the same compound, the “fold higher activity compared to cisplatin against MCF-7” value ([3]; Table 1 IC50 values, 48 h) was “up to 120 fold”, the IC50 ([4]; MTT assay, 48 h incubation) was 0.1 ± 0.03 µM and the IC50 [5, 22] was 1.82 ± 0.99 µM. For the same compound, the IC50 ([6]; CV assay, 48 h incubation) was 0.458 ± 0.029 µM, the IC50 ([7]; CV assay, 48 h incubation) was 0.471 ± 0.048 µM and the IC50 ([8]; CV assay, 48 h incubation) was 0.219 ± 0.016 µM. For the same compound, the IC50 ([9]; CV assay, 48 h incubation) was 0.255 ± 0.085 µM and the IC50 [10, 23] was 2.09 ± 1.03 µM.

“(3-(4,5-bis(4-Methoxylphenyl)oxazol-2-yl)propanoato)triphenyltin(IV) [Ph3SnL2]” showed an IC50 ([1]; MTT assay, 48 h incubation) of 0.575 ± 0.043 µM, an IC50 ([2]; MTT assay, 48 h incubation) of 0.453 ± 0.063 µM and an IC50 ([3]; MTT assay, 48 h incubation) of 0.309 ± 0.059 µM. For the same compound, the IC50 ([4]; MTT assay, 48 h incubation) was 0.223 ± 0.084 µM, the IC50 [5, 22] was 1.99 ± 1.12 µM and the IC50 ([6]; CV assay, 48 h incubation) was 0.785 ± 0.018 µM. For the same compound, the IC50 ([7]; CV assay, 48 h incubation) was 0.727 ± 0.018 µM, the IC50 ([8]; CV assay, 48 h incubation) was 0.543 ± 0.026 µM and the IC50 ([9]; CV assay, 48 h incubation) was 0.628 ± 0.165 µM. For the same compound, the IC50 [10, 23] was 2.61 ± 0.52 µM.
